pIC50, pKd: −log10 of the molar value. Like-named read-outs stand apart in the source and are kept apart here. Where a SMILES comes first, the peptide text is derived from it.
Assays:
[1] = biological target: HLA-A24.02; assay: Class I MHC peptide binding affinity (displacement of radiolabeled reference peptide); set-up: species or system human; settings: for IC50: allele A24.02, read-out: Observed Affinity (IC50, (nM))
[2] = biological target: T1, HLA-A02.01 (Homo sapiens, UniProt P04439, D140Y/D185E/D98H/E176V/E277Q/G131W/G231S/I119V/I121R/I166T/I218V/N151K/N90K/P208A/P217A/Q86G/Q94H/R138H/R169H); assay: Class I MHC peptide binding stability (pMHC-I dissociation, 125I-labeled light chain); settings: allele A02.01
T1 construct: made in house; host or cells: E. coli

[3] = biological target: HLA-A02.01 (Homo sapiens, UniProt P04439, D140Y/D185E/D98H/E176V/E277Q/G131W/G231S/I119V/I121R/I166T/I218V/L300P/L318F/N151K/N90K/P208A/P217A/Q86G/Q94H/R138H/R169H/T345S); assay: Class I MHC peptide binding affinity (displacement of radiolabeled reference peptide); settings: for IC50: allele A02.01, (nM))
In short: (§1)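 Radiolabeled reference peptide/MHCI complexes; test peptide titration, 2 d incubation; bound label remaining read by size-exclusion gel filtration.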

[4] = test system: HLA-A24.02; assay: Class I MHC peptide binding stability (pMHC-I dissociation, 125I-labeled light chain); set-up: species or system human; settings: for Stability (T1/2 (h)): allele A24.02
[5] = biological target: T2, HLA-B07.02 (Homo sapiens, UniProt P01889); assay: Class I MHC peptide binding affinity (displacement of radiolabeled reference peptide); settings: Allele B07.02; read-out: Observed Affinity (IC50; (nM))
[6] = biological target: HLA-A01.01 (Homo sapiens, UniProt P04439, A114D/A174V/A182V/D101N/D185E/E176A/E190D/L180R/Q94H/R68K/S129P/T187R/V100A/V91M/W191G); assay: as above; settings: for IC50: allele A01.01, (nM))
In short: as §1

[7] = biological target: HLA-A03.01 (Homo sapiens, UniProt P04439); assay: as above; settings: allele A03.01; read-out: Observed Affinity (IC50; (nM))
[8] = biological target: T2, HLA-B07.02; assay: Class I MHC peptide binding stability (pMHC-I dissociation, 125I-labeled light chain); set-up: made in house; host or cells: E. coli; settings: Allele B07.02
[9] = read-out: Observed Affinity (IC50

SMILES | IC50 [1] [nM] | Stability (T1/2 (h)) [2] [h] | IC50 [3, 9] [nM] | Stability (T1/2 (h)) [4] [h] | further results
CC[C@H](C)[C@H](NC(=O)[C@@H](NC(=O)[C@H](CC(C)C)NC(=O)[C@@H](NC(=O)[C@@H]1CCCN1C(=O)[C@H](CCCNC(=N)N)NC(=O)[C@H](Cc1c[nH]c2ccccc12)NC(=O)[C@H](CC(N)=O)NC(=O)[C@@H](N)CCSC)[C@@H](C)CC)[C@@H](C)O)C(=O)O (H-MNWRPILTI-OH; N-terminus and C-terminus assumed) | 6980 | 3.8 | 516 | 0.2 | 
CC(C)C[C@H](NC(=O)[C@H](C)N)C(=O)N[C@@H](CO)C(=O)N[C@@H](C)C(=O)N[C@@H](CO)C(=O)N[C@@H](CC(N)=O)C(=O)N[C@@H](CO)C(=O)N[C@@H](CS)C(=O)N[C@@H](Cc1ccccc1)C(=O)O (H-ALSASNSCF-OH; N-terminus and C-terminus assumed) | 16300 | 0.3 | 728 | 0.2 | IC50 [5]: 684 nM
CC[C@H](C)[C@H](NC(=O)[C@H](CC(=O)O)NC(=O)[C@H](Cc1ccccc1)NC(=O)[C@H](CC(C)C)NC(=O)[C@@H](NC(=O)[C@H](CCC(=O)O)NC(=O)[C@@H](NC(=O)[C@H](CCSC)NC(=O)[C@@H](N)Cc1c[nH]c2ccccc12)[C@@H](C)O)[C@@H](C)O)C(=O)N[C@H](C(=O)O)C(C)C (H-WMTETLFDIV-OH; N-terminus and C-terminus assumed) |  | 0.4 | 40 |  | IC50 [6, 9]: 14400 nM
CC[C@H](C)[C@H](NC(=O)[C@H](CC(C)C)NC(=O)[C@H](CCC(N)=O)NC(=O)[C@@H](NC(=O)[C@@H](NC(=O)[C@H](CO)NC(=O)[C@@H](NC(=O)[C@H](CC(C)C)NC(=O)[C@@H](N)CS)[C@@H](C)O)[C@@H](C)O)C(C)C)C(=O)N[C@@H](CCSC)C(=O)O |  |  |  |  | pKd [6]: 5.08; IC50 ([6]; Observed Affinity (IC50): 11000 nM; pKd [3]: 6.27; IC50 ([3]; Observed Affinity (IC50): 716 nM
CSCC[C@H](NC(=O)[C@H](CCC(=O)O)NC(=O)[C@H](CC(C)C)NC(=O)[C@H](CC(C)C)NC(=O)[C@H](CC(C)C)NC(=O)CNC(=O)[C@H](Cc1ccc(O)cc1)NC(=O)[C@H](CC(C)C)NC(=O)[C@@H]1CCCN1)C(=O)N[C@@H](CC(C)C)C(=O)O (H-PLYGLLLEML-OH; N-terminus and C-terminus assumed) | 444 |  | 797 | 6.3 | 
CC(C)C[C@H](NC(=O)[C@H](Cc1ccccc1)NC(=O)[C@H](CO)NC(=O)[C@H](CC(C)C)NC(=O)[C@@H](N)CS)C(=O)N[C@@H](CO)C(=O)N[C@@H](CO)C(=O)N[C@@H](Cc1c[nH]c2ccccc12)C(=O)N[C@@H](CC(=O)O)C(=O)N[C@@H](Cc1ccc(O)cc1)C(=O)O (H-CLSFLSSWDY-OH; N-terminus and C-terminus assumed) |  |  |  |  | IC50 [7]: 2710 nM; IC50 [6, 9]: 987 nM
CC(C)C[C@H](NC(=O)[C@H](CC(C)C)NC(=O)[C@H](CC(C)C)NC(=O)[C@H](CC(=O)O)NC(=O)[C@H](CS)NC(=O)[C@H](CC(C)C)NC(=O)[C@@H]1CCCN1C(=O)[C@@H](NC(=O)[C@@H](N)C(C)C)C(C)C)C(=O)O (H-VVPLCDLLL-OH; N-terminus and C-terminus assumed) | 3890 |  | 1200 | 0.4 | 
CSCC[C@H](NC(=O)[C@H](Cc1ccc(O)cc1)NC(=O)[C@@H](N)CCC(=O)O)C(=O)N[C@@H](C)C(=O)N[C@@H](CC(N)=O)C(=O)NCC(=O)N[C@@H](CO)C(=O)N[C@@H](CC(C)C)C(=O)N[C@@H](CC(C)C)C(=O)O (H-EYMANGSLL-OH; N-terminus and C-terminus assumed) | 5 |  |  |  | pIC50 ([1]; BTK C481S peptide, HLA Allele A24.02, read-out: Affinity): 8.30; Stability (half-life (hr.)) ([4]; BTK C481S peptide, HLA Allele A24.02): 343 min
CC(C)[C@H](NC(=O)[C@H](CCC(=O)O)NC(=O)[C@H](CC(N)=O)NC(=O)[C@H](CO)NC(=O)CN)C(=O)N[C@H](C(=O)N[C@H](C(=O)N[C@@H](CCCNC(=N)N)C(=O)N[C@@H](Cc1ccc(O)cc1)C(=O)O)[C@@H](C)O)[C@@H](C)O (H-GSNEVTTRY-OH; N-terminus and C-terminus assumed) |  |  |  |  | IC50 [6, 9]: 606 nM
CC(C)C[C@H](N)C(=O)N1CCC[C@H]1C(=O)N[C@@H](CCCNC(=N)N)C(=O)N[C@@H](CCCCN)C(=O)N1CCC[C@H]1C(=O)N[C@H](C(=O)N[C@@H](CCCNC(=N)N)C(=O)N[C@@H](C)C(=O)N[C@@H](C)C(=O)O)[C@@H](C)O |  |  |  |  | Stability (T1/2 (h)) [8]: 5.5 h
C[C@H](NC(=O)[C@H](CO)NC(=O)[C@H](C)NC(=O)[C@@H]1CCCN1C(=O)[C@H](C)NC(=O)[C@@H]1CCCN1C(=O)[C@H](CCCNC(=N)N)NC(=O)[C@@H]1CCCN1C(=O)[C@@H](N)Cc1c[nH]cn1)C(=O)O |  |  |  |  | Stability (T1/2 (h)) [8]: 4.9 h
CC[C@H](C)[C@H](N)C(=O)N[C@@H](CC(C)C)C(=O)N[C@@H](CC(=O)O)C(=O)N[C@H](C(=O)N[C@@H](C)C(=O)NCC(=O)N[C@@H](CC(C)C)C(=O)N[C@@H](CCC(=O)O)C(=O)N[C@@H](CCC(=O)O)C(=O)N[C@@H](Cc1ccc(O)cc1)C(=O)O)[C@@H](C)O (H-ILDTAGLEEY-OH; N-terminus and C-terminus assumed) |  |  |  |  | IC50 ([6]; Observed Affinity (IC50): 8.6 nM
CC[C@H](C)[C@H](NC(=O)[C@H](CO)NC(=O)[C@H](Cc1c[nH]c2ccccc12)NC(=O)[C@H](Cc1c[nH]cn1)NC(=O)[C@H](C)NC(=O)[C@@H]1CCCN1C(=O)[C@H](CCSC)NC(=O)[C@H](CC(C)C)NC(=O)[C@@H](N)CO)C(=O)O | 633 | 5 | 48 | 0.4 | 
CC[C@H](C)[C@H](N)C(=O)N[C@@H](CC(C)C)C(=O)N[C@@H](CC(=O)O)C(=O)N[C@H](C(=O)N[C@@H](C)C(=O)NCC(=O)N[C@@H](Cc1c[nH]cn1)C(=O)N[C@@H](CCC(=O)O)C(=O)N[C@@H](CCC(=O)O)C(=O)N[C@@H](Cc1ccc(O)cc1)C(=O)O)[C@@H](C)O (H-ILDTAGHEEY-OH; N-terminus and C-terminus assumed) |  |  |  |  | IC50 ([6]; Observed Affinity (IC50): 64.2 nM
CC(C)C[C@H](NC(=O)[C@H](CC(C)C)NC(=O)[C@H](CC(C)C)NC(=O)[C@H](CC(=O)O)NC(=O)[C@H](CO)NC(=O)[C@H](CC(C)C)NC(=O)[C@@H]1CCCN1C(=O)[C@@H](NC(=O)[C@@H](N)C(C)C)C(C)C)C(=O)O (H-VVPLSDLLL-OH; N-terminus and C-terminus assumed) | 8250 |  | 2550 | 0.5 | 
CC[C@H](C)[C@H](NC(=O)[C@H](CCCCN)NC(=O)[C@H](Cc1ccc(O)cc1)NC(=O)[C@@H](NC(=O)[C@@H](NC(=O)[C@H](CC(=O)O)NC(=O)[C@H](CO)NC(=O)[C@@H](N)CCSC)[C@@H](C)O)[C@@H](C)O)C(=O)N[C@@H](Cc1ccc(O)cc1)C(=O)O (H-MSDTTYKIY-OH; N-terminus and C-terminus assumed) |  |  |  |  | pIC50 [6]: 7.99
CC(C)C[C@H](NC(=O)[C@H](CC(C)C)NC(=O)[C@H](CC(C)C)NC(=O)CNC(=O)[C@H](Cc1ccc(O)cc1)NC(=O)[C@H](CC(C)C)NC(=O)[C@@H]1CCCN1C(=O)[C@@H](NC(=O)[C@@H](N)C(C)C)C(C)C)C(=O)O | 658 | 0.6 | 1040 | 0.8 | 
CC[C@H](C)[C@H](NC(=O)[C@@H]1CCCN1C(=O)[C@H](CC(C)C)NC(=O)[C@H](Cc1ccccc1)NC(=O)[C@H](CC(C)C)NC(=O)[C@H](CO)NC(=O)[C@H](CC(=O)O)NC(=O)[C@@H](NC(=O)[C@H](CC(C)C)NC(=O)[C@@H](N)CCSC)[C@@H](C)O)C(=O)O |  | 1 |  |  | IC50 [6, 9]: 7670 nM

From US20220282217A1, “COMPOSITIONS AND METHODS FOR PREPARING T CELL COMPOSITIONS AND USES THEREOF” (priority 2019, published 2022)
